“And” between values parts separate entries of the source, which are not always exact repeats. Equal values may be shown once. Where a name gives a salt, the structure may show the parent alone. Read-outs that look alike come from different tables or passages of the source.
Assays:
Salmonella typhi [1] = assay: Agar diffusion, inhibition zone (ZOI) and activity index; assay type: cell-based; details: for ZOI: 10^−3 M in DMF, 5 mm holes, 20 h at 37°C
Bacillus subtilis [2] = assay: as above; details: for ZOI: 10^−3 M in DMF, 5 mm holes, 20 h at 37°C
Bacillus subtilis [3] = assay: MIC / MBC determination
[4] = Serum lipid profile in high-fat diet mice; assay type: in vivo; details: HFD C57BL/6 mice, 4 mg kg^−1 body weight, 3 months, mean ± SD
Experimental: (§1) This study employed 8‐week‐old male C57BL/6 mice of matched weight (around 20–25 g) from an inbred “genetically identical” strain. The mice were purchased from the National Research Center's Animal House. Then, they were subdivided into five groups, each group containing eight mice; four groups were treated with CETZ.2HCl (antihistamine drug) and its metal complexes, whereas one group was left untreated and classified as a control group. Animals were housed in modular plastic veterinary cages at air‐conditioned room, under pathogen‐free conditions. Mice were fed HFD, which consisted of carbs 42.0%, fat 23.0%, protein 17.0%, fiber 3.0%, minerals 5.0%, and moisture 10.0% for 3 months, together with administration of either CETZ.2HCl or its metal complexes (4 mg kg ^−1 body weight) in DMF [37]. Experiments were performed in accordance with the regulations of the Animal Care and Use Committee of the College of Veterinary Medicine, Mansoura University (MU‐ACUC), Egypt; MU‐ACUC (PHARM.R.24.02.30), complied with “Guide for the Care and Use of Laboratory Animals” (National Research Council publication 8th ed., USA, 2011).
(§2) Specimens of blood were gathered from the retro‐orbital sinus, under halothane (1.5 percent v/v halothane in oxygen) anesthesia via inhalation. The collected blood was allowed to clot, by centrifugation at 1600 rpm for 20 min, to obtain serum. Isolated sera were maintained at −80°C until tests of liver function in addition to lipid profiles were performed. For estimation of L. lipase activity, fluorometric L. lipase activity assay kit was utilized following the manufacturer's protocol (Cat. No. STA‐610, Cell BIOLABS INC., San Diego, USA). Serum T. chol. LDL, HDL, TG, ALT (alanine aminotransferase), AST (aspartate aminotransferase), and ALP (alkaline phosphatase) were examined with Roche kits using COBAS Integra 400 and COBAS Integra‐400 plus (Roche Diagnostics Limited, Switzerland).

Aspergillus niger [5] = assay: Agar diffusion, inhibition zone (ZOI) and activity index; details: for ZOI: 10^−3 M in DMF, 5 mm holes, 7 days at 30°C
Salmonella typhi [6] = assay: MIC / MBC determination; assay type: cell-based
Aspergillus terreus [7] = assay: MIC determination
Escherichia coli [8] = assay: Agar diffusion, inhibition zone (ZOI) and activity index; details: for ZOI: 10^−3 M in DMF, 5 mm holes, 20 h at 37°C
[9] = test system: lipoprotein lipase (L. lipase); assay: Serum L. lipase activity in high-fat diet mice (fluorometric kit); assay type: in vivo; details: HFD C57BL/6 mice; for L. lipase (serum enzyme activity): 4 mg kg^−1 body weight in DMF, 3 months, mean ± SD; for mean L. lipase activity: rounded, 4 mg kg^−1 body weight
Experimental: as §1, §2

Staphylococcus aureus [10] = assay: Agar diffusion, inhibition zone (ZOI) and activity index; details: for ZOI / AI: Staphylococcus aureus; for ZOI: 10^−3 M in DMF, 5 mm holes, 20 h at 37°C; for AI: ZOI of compound / ZOI of standard (ampicillin) × 100
[11] = Serum liver function enzymes in high-fat diet mice; assay type: in vivo; details: HFD C57BL/6 mice, 4 mg kg^−1 body weight, 3 months, mean ± SD
Experimental: as §1, §2

Staphylococcus aureus [12] = assay: MIC / MBC determination
Aspergillus terreus [13] = assay: Agar diffusion, inhibition zone (ZOI) and activity index; details: for ZOI: 10^−3 M in DMF, 5 mm holes, 7 days at 30°C; for AI: ZOI of compound / ZOI of standard (colitrimazole) × 100
Aspergillus niger [14] = assay: MIC determination
Escherichia coli [15] = assay: MIC / MBC determination
Escherichia coli [16] = details: cited from earlier work; for Escherichia coli (inhibition zone): in mm
Staphylococcus aureus [17] = details: cited from earlier work; for Staphylococcus aureus (inhibition zone): in mm
Bacillus subtilis [18] = details: cited from earlier work; for Bacillus subtillis (inhibition zone): in mm
[19] = Salmonella typhi, ZOI of compound / ZOI of standard (gentamicin) × 100
[20] = Bacillus subtilis, ZOI of compound / ZOI of standard (ampicillin) × 100
[21] = Escherichia coli, ZOI of compound / ZOI of standard (gentamicin) × 100
[22] = Table 9, preceding research ref [9]
[23] = Table 9, preceding research ref [7]
[24] = Table 9, preceding research ref [11]

Row | Compound | ZOI (Salmonella typhi [1]; Salmonella typhi) | AI (Salmonella typhi [1]; [19]) [%] | ZOI (Bacillus subtilis [2]; Bacillus subtilis) | AI (Bacillus subtilis [2]; [20]) [%] | MIC (Bacillus subtilis [3]) | HDL [4] [mg/dL] | LDL [4] [mg/dL] | Total Chol. [4] [mg/dL] | Trig [4] [mg/dL] | MIC (Aspergillus terreus [7]) | ZOI (Escherichia coli [8]; Escherichia coli) | AI (Escherichia coli [8]; [21]) [%] | L. lipase (serum enzyme activity) [9] | mean L. lipase activity [9] [U L^−1] | ALP [11] [U L^−1] | ALT [11] [U L^−1] | AST [11] | ZOI (Aspergillus terreus [13]) | AI (Aspergillus terreus [13]) [%] | MBC (Escherichia coli [15]) | also measured
1 | O=C(O)COCCN1CCN(C(c2ccccc2)c2ccc(Cl)cc2)CC1 (racemic) [CETZ.2HCl, (RS)‐2‐[2‐[4‐[(4‐chlorophenyl)phenylmethyl]piperazine‐L‐yl]‐ethoxy]acetic acid, dihydrochloride, reference compound] | 7.7 ±0.58 mm | 37.2 | 12.1 ± 0.15 mm | 42.6 | 0.05 µg/mL | 85.25 ± 6.23 | 93.25 ± 8.15 | 230.38 | 80.5 ± 10.18 | 0.025 µg/mL and 0.025 ± 0.01 µg/mL | 8.5 ±0.50 mm | 43.6 | 104.88± 26.5 U/L and 104.88 U/L | 104.9 | 90.5 ± 16.79 | 245.63 ± 43.99 | 345.5 ± 57.73 U L^−1 | 10.3 ±0.27 mm | 58.9 | 0.091 µg/mL | ZOI (Aspergillus niger [5]; Aspergillus niger): 12.5 ±0.36 mm; MBC (Salmonella typhi [6]; Salmonella enterica, TYPHI): 0.037 ± 0.01 µg/mL; ZOI (Staphylococcus aureus [10]): 9.4 ± 0.02 mm; AI (Staphylococcus aureus [10]): 41.4%; MBC (Staphylococcus aureus [12]): 0.049 µg/mL and 0.049 ± 0.01 µg/mL; MIC (Staphylococcus aureus [12]): 0.025 µg/mL and 0.025 ± 0.02 µg/mL; MIC (Aspergillus niger [14]): 0.025 µg/mL and 0.025 ± 0.01 µg/mL; MIC (Escherichia coli [15]): 0.075 ± 0.01 µg/mL
2 | O.c1cnc2c(c1)ccc1cccnc12 [Phen.H2O, 1,10‐phenanthroline monohydrate] |  |  | 1.1 ± 0.16 mm | 3.87 | 0.025 µg/mL and 0.025 ± 0.03 µg/mL |  |  |  |  |  |  |  |  |  |  |  |  |  |  |  | MBC (Bacillus subtilis [3]): 0.032 µg/mL
3 | O.O.O.O=C([O-])COCCN1CCN(C(c2ccccc2)c2ccc(Cl)cc2)CC1.O=C([O-])COCCN1CCN(C(c2ccccc2)c2ccc(Cl)cc2)CC1.[Cu+2] (stereo not drawn) [[Cu(CETZ)2(H2O)2].H2O] |  |  |  |  |  |  |  |  |  |  |  |  |  |  |  |  |  |  |  |  | Escherichia coli (inhibition zone) (Escherichia coli [16]; [22]): 13.43 ± 0.39; Staphylococcus aureus (inhibition zone) (Staphylococcus aureus [17]; [22]): 15.21 ± 0.46; Bacillus subtillis (inhibition zone) (Bacillus subtilis [18]; [22]): 18.31 ± 0.55
4 | CC(N)C(=O)[O-].O.O=C([O-])COCCN1CCN(C(c2ccccc2)c2ccc(Cl)cc2)CC1.[Cu+2] (stereo not drawn) [[Cu(CETZ)(Ala)(H2O)]] |  |  |  |  |  |  |  |  |  |  |  |  |  |  |  |  |  |  |  |  | AI (Escherichia coli [16]; Table 9, Escherichia coli ref [7]): 52.91; Escherichia coli (inhibition zone) (Escherichia coli [16]; [23]): 11.8 ± 0.5; AI (Staphylococcus aureus [17]; Table 9, Staphylococcus aureus ref [7]): 56.93; Staphylococcus aureus (inhibition zone) (Staphylococcus aureus [17]; [23]): 15.6 ± 0.4; AI (Bacillus subtilis [18]; Table 9, Bacillus subtillis ref [7]): 42.9; Bacillus subtillis (inhibition zone) (Bacillus subtilis [18]; [23]): 13.9 ± 0.3
5 | O.O.O=C([O-])COCCN1CCN(C(c2ccccc2)c2ccc(Cl)cc2)CC1.O=[N+]([O-])[O-].[Cu+2].c1cnc2c(c1)ccc1cccnc12 (stereo not drawn) [complex (1), [Cu(CETZ)(Phen)(H2O)2(NO3)]] | 30.0 ^+ ^3 ±0.10 mm | 144.9 | 23.3 ^+ ^2 ± 0.66 mm | 82.04 | 0.050 ± 0.007 µg/mL | 80.75 ± 8.26 | 60.5 ± 5.78 | 138.88 ± 10.92 | 77.25 ± 9.3 | 0.075 µg/mL and 0.075 ± 0.005 µg/mL | 32.5 ^+ ^3 ±0.30 mm | 166.6 | 127.88 U/L | 127.9 | 88 ± 12.64 | 228.63 ± 50.57 | 274.63 ± 36.40^NS U L^−1 | 10.5^NS ±1.06 mm | 60.0 | 0.15 0.02 µg mL^−1 | AI (Salmonella typhi [1]; Table 9, Salmonella typhi, this work): 59.9; Salmonella typhi (inhibition zone) (Salmonella typhi [1]; Table 9, this work): 30.0 ^+ ^3 ± 0.10; AI (Bacillus subtilis [2]; Table 9, Bacillus subtillis, this work): 55.3; Bacillus subtillis (inhibition zone) (Bacillus subtilis [2]; Table 9, this work): 23.3 ^+ ^2 ± 0.66; ZOI (Aspergillus niger [5]; Aspergillus niger): 13.1^NS ±0.38 mm; AI (Aspergillus niger [5]; Aspergillus niger, ZOI of compound / ZOI of standard (colitrimazole) × 100): 66.16%; AI (Aspergillus niger [5]; Table 9, Aspergillus niger, this work): 88.89; Aspergillus niger (inhibition zone) (Aspergillus niger [5]; Table 9, this work): 13.1^NS ± 0.38; MBC (Salmonella typhi [6]; Salmonella typhi): 0.081 ± 0.01 µg/mL; MIC (Salmonella typhi [6]; Salmonella typhi): 0.075 µg/mL and 0.075 ± 0.006 µg/mL; AI (Escherichia coli [8]; Table 9, Escherichia coli, this work): 113.3; Escherichia coli (inhibition zone) (Escherichia coli [8]; Table 9, this work): 32.5 ^+ ^3 ± 0.30; L. lipase (serum enzyme activity) ([9]; listed as Cu-CETZ Complex): 127.88±11.72 U/L; ZOI (Staphylococcus aureus [10]): 17.3 ^+ ^2 ±0.33 mm; AI (Staphylococcus aureus [10]): 76.2%; Staphylococcus aureus (inhibition zone) (Staphylococcus aureus [10]; Table 9, this work): 17.3 ^+ ^2 ± 0.33; MBC (Staphylococcus aureus [12]): 0.086 µg/mL and 0.086 ± 0.004 µg/mL; MIC (Staphylococcus aureus [12]): 0.075 µg/mL and 0.075 ± 0.03 µg/mL; MIC (Aspergillus niger [14]): 0.050 µg/mL and 0.050 ± 0.02 µg/mL; MIC (Escherichia coli [15]): 0.1 ± 0.006 µg/mL
6 | CC(=O)[O-].O.O.O=C([O-])COCCN1CCN(C(c2ccccc2)c2ccc(Cl)cc2)CC1.[Cd+2].c1cnc2c(c1)ccc1cccnc12 (stereo not drawn) [complex (3), [Cd(CETZ)(Phen)(H2O)2(CH3COO)]] | 19.5 ^+ ^2 ±0.85 mm | 94.2 | 32.0 ^+ ^3 ±0.68 mm | 112.68 | 0.075 ± 0.006 µg/mL | 44.63 ± 12.92 | 89.25 ± 9.45 | 283.75 | 188.75 | 0.100 µg/mL and 0.1 ± 0.01 µg/mL | 28.5 ^+ ^2 ±0.83 mm | 146.1 | 52.38 U/L | 52.4 | 123.63 ± 11.45 | 283.75 ± 23.49 | 374.88 ± 36.33 U L^−1 | 14.7 ^+ ^1 ±0.55 mm | 84.0 | 0.23 ± 0.053 µg/mL | MBC (Salmonella typhi [6]; Salmonella typhi): 0.066 ± 0.014 µg/mL; MIC (Salmonella typhi [6]; Salmonella typhi): 0.050 µg/mL and 0.050 ± 0.01 µg/mL; L. lipase (serum enzyme activity) ([9]; listed as Cd-CETZ Complex): 52.38±9.6 U/L; MIC (Escherichia coli [15]): 0.1 ± 0.02 µg/mL
7 | [Cu(AMBI)(CETZ)(NO3)(H2O)2] |  |  |  |  |  |  |  |  |  |  |  |  |  |  |  |  |  |  |  |  | AI (Escherichia coli [16]; Table 9, Escherichia coli ref [11]): 95.10; Escherichia coli (inhibition zone) (Escherichia coli [16]; [24]): 21.3 ± 0.4; AI (Staphylococcus aureus [17]; Table 9, Staphylococcus aureus ref [11]): 96.72; Staphylococcus aureus (inhibition zone) (Staphylococcus aureus [17]; [24]): 26.5 ± 0.6; AI (Bacillus subtilis [18]; Table 9, Bacillus subtillis ref [11]): 89.2; Bacillus subtillis (inhibition zone) (Bacillus subtilis [18]; [24]): 28.9 ± 0.3

Source: publication PMC12081029, “Structural, Spectroscopic, and Docking Analysis of N,O‐Donor Ligand Metal Complex Nanoparticles With Hypolipidemic Effects via Lipoprotein Lipase Activation in High‐Fat Diet Mice” (Chemistry & Biodiversity, 2024)
